# Earlier results as cited in patent US8486426B2, “Methods and compositions for treatment of dermal conditions” (Kimberly-Clark Worldwide, Inc., priority 2002, dated 2013).
# Tests used:
# onychomycosis = settings: for Clinical cure rate: total dystrophic onychomycosis (TDO), oral drug
# [1] = test system: dermatophytes, yeast and molds that typically cause onychomycosis
# [2] = for deaths among liver failure cases: reported by/through 2001
# [3] = in vivo
smiles,measurement,setting,value
"CCC(C)(C)c1ccc(CC(C)CN2C[C@@H](C)O[C@@H](C)C2)cc1 (some centres unmarked) [LOCERYL, amorolfine]",effective in share of the cases,"onychomycosis; mild onychomycosis with no matrix involvement, topical 5% solution",about 40%
"Cc1cc(C2CCCCC2)n(O)c(=O)c1 [PENLAC, ciclopirox olamine]",cure rate,"onychomycosis; mild to moderate DLSO, average 40% of nail involved, no matrix infection, topical",7%
same,in vitro action on fungi,[1],fungicidal
"CCC(C)n1ncn(-c2ccc(N3CCN(c4ccc(OCC5COC(Cn6cncn6)(c6ccc(Cl)cc6Cl)O5)cc4)CC3)cc2)c1=O (centres unmarked) [SPORANOX, itraconazol]",deaths among pulmonary edema cases,[2]; as of 2001,13 deaths
same,cases of liver failure reported,[2]; in vivo,24 cases
same,cases of pulmonary edema (probable association),[2]; in vivo,58 cases
same,deaths among liver failure cases,[2],11 deaths
"CN(C/C=C/C#CC(C)(C)C)Cc1cccc2ccccc12 [TERBINAFINE, terbinafine]",persistence after treatment,[3],several months
same,time at which detectable in the nail bed,[3],one week
same,cases of liver failure reported,[2]; in vivo,16 cases
same,liver transplants reported,[2]; in vivo,2 liver transplants
same,deaths among liver failure cases,[2],11 deaths
same,Clinical cure rate,onychomycosis,37%
OC(Cn1cncn1)(Cn1cncn1)c1ccc(F)cc1F [fluconazole],Clinical cure rate,onychomycosis,about 38%
